Entries after “also recorded” stand apart in the source; their conditions may differ. Peptide text beside a SMILES is read from it. * marks the point of attachment. Biotin = O=C1N[C@H]2[C@H](CS[C@H]2CCCCC(=O)*)N1; Ahx = NCCCCCC(=O)O
Experiments:
[1] = system: normal human bronchial epithelial (NHBE) cells; assay: Trans-epithelial electrical resistance (TER) after LPS exposure; assay type: cell-based; conditions: aCT1 pre-treatment, 10 μg LPS, 72 hours
Experimental: Normal human bronchial epithelial (NHBE) cells were exposed to 10 μg LPS. […] (n=3/group; p-values reported at 72 hours compared to LPS).
(§1) To determine if aCT1 treatment preserves junctional integrity in human lung cells, human bronchial epithelial cells (NHBEs) were grown as confluent monolayers on Transwell inserts and trans-epithelial electrical resistance (TER) recorded. TER readings measure electrical resistance across a cell monolayer and provide a quantitative metric of intercellular junction integrity.

[2] = Intravenous (bolus) toxicity in rats; conditions: rat, in vivo, intravenous administration, read-out: Maximum Tolerated Dose (clinical signs observed)
Experimental: Intravenous administration (bolus) of aCT1 in rats was well tolerated and a 5 mg/kg dosing level was established as the no-observable-adverse-effect level (NOAEL). Clinical signs were only observed at aCT1 administration levels that are well above the therapeutic range of efficacy, following intravenous administration of aCT1 at ≥10 mg/kg (Maximum Tolerated Dose). The results of these studies uniformly support aCT1 tolerability when delivered locally and systemically via various routes.

[3] = system: ocular corneal injury models; conditions: cited from earlier work
[4] = system: normal human bronchial epithelial cells (NHBEs); conditions: NHBEs treated with 100 mM alcohol
[5] = system: C57BL/6 mice challenged with a lethal dose of lipopolysaccharide (LPS); assay: LPS-induced lung injury mouse model of ARDS, survival; assay type: in vivo
Experimental: C57BL/6 mice were pretreated with either 5.76 mg/kg aCT1 peptide, 5.76 mg/kg control peptide, or PBS vehicle control prior to inoculation with a lethal dose (35 mg/kg) of LPS. For FIG. 2A, n=20-22/group and p<0.0001 by Log-rank Mantel-Cox test; for FIG. 2B, n=5-8/group and p<0.001 by Log-rank Mantel-Cox test. Doses are reported as presented dose, with estimated animal body weight of 25 grams.
Studies were undertaken to assess whether delivery of aCT1 to the respiratory tract in animal models of ARDS would reduce epithelial and endothelial breakdown, thereby preserving the air-liquid barrier while preventing fluid accumulation and reducing immune cell infiltration, resulting in the amelioration of ARDS pathology and preserving lung function to improve survival. Using a well characterized mouse model of ARDS, we investigated whether aCT1 applied directly to the lungs could inhibit severe endotoxin induced lung injury. C57BL/6 mice were intranasally challenged with a lethal dose of lipopolysaccharide (LPS) and were treated with aCT1 immediately prior to LPS administration (FIG. 2A), or six (6) hours post LPS exposure (FIG. 2B).

[6] = human
Excerpt: (§2) Clinical trials have been undertaken to assess safety of topical delivery of aCT1.

human subjects = system: human subjects
Excerpt: as §2

[7] = system: cecal ligation and puncture (CLP) mouse model of sepsis; assay: Cecal ligation and puncture (CLP) mouse model of sepsis; assay type: in vivo
Excerpt: 3A. For FIG. 3A, n=7-9/group and p=0.052 by Log-rank Mantel-Cox test; for FIG. 3B, n=8/group and p<0.05 by Log-rank Mantel-Cox test. Doses are reported as administered dose, with estimated animal body weight of 25 grams.
Representative images are shown.

[8] = system: normal human bronchial epithelial (NHBE) cells; assay: Trans-epithelial electrical resistance (TER) after H2O2 exposure; assay type: cell-based; conditions: NHBE monolayers; aCT1 pre-treatment; 500 mM H2O2; 72 hours
Experimental: (n=3/group; p-values reported at 72 hours compared to H2O2).
as §1

CC[C@H](C)[C@H](NC(=O)[C@H](CCC(=O)O)NC(=O)[C@H](CC(C)C)NC(=O)[C@H](CC(=O)O)NC(=O)[C@H](CC(=O)O)NC(=O)[C@@H]1CCCN1C(=O)[C@H](CCCNC(=N)N)NC(=O)[C@@H]1CCCN1C(=O)[C@H](CCCNC(=N)N)NC(=O)[C@H](CCCCN)NC(=O)[C@H](CCCCN)NC(=O)[C@H](Cc1c[nH]c2ccccc12)NC(=O)[C@@H]1CCCN1C(=O)[C@H](CCCCN)NC(=O)[C@H](CCCNC(=N)N)NC(=O)[C@H](CCCNC(=N)N)NC(=O)[C@H](CC(N)=O)NC(=O)[C@@H]1CCCN1C(=O)[C@H](Cc1ccccc1)NC(=O)[C@H](Cc1c[nH]c2ccccc12)NC(=O)[C@@H](NC(=O)[C@H](CCCCN)NC(=O)[C@@H]1CCCN1C(=O)[C@H](CCC(N)=O)NC(=O)[C@H](CCCNC(=N)N)NC(=O)CCCCCNC(=O)CCCC[C@@H]1SC[C@@H]2NC(=O)N[C@@H]21)[C@@H](C)CC)C(=O)O [aCT1] ({Biotin-Ahx}-RQPKIWFPNRRKPWKKRPRPDDLEI-OH; N-terminus and C-terminus assumed)
TER / barrier integrity [1]: stabilized barrier integrity; also recorded: significantly improved TER readings | MTD [2]: ≥ 10 mg/kg | inflammatory signaling molecules [3]: reduced inflammatory signaling molecules such as IL-6, IL-1β, TNFα, Cox-2, MMP-9, and VEGF | electrical resistance (barrier function) [4]: improved electrical resistance | survival ([5]; lethal LPS 35 mg/kg intranasal, 5.76 mg/kg aCT1 intranasal immediately prior to LPS, p<0.0001 Log-rank): provides significant protection against lipopolysaccharide (LPS)-induced mortality; also recorded: significantly improved survival | survival ([5]; lethal LPS, aCT1 six hours post LPS, p<0.001 Log-rank): provides significant protection against lipopolysaccharide (LPS)-induced mortality; also recorded: significantly improved survival | half-life [6]: 15 to 20 min | immunogenicity (anti-aCT1 antibodies) (human subjects; any preclinical study or clinical trial): not immunogenic | systemic exposure (human subjects; pharmacokinetic studies in clinical trials, topical): no systemic exposure | drug related adverse events (human subjects; topical delivery, over 482 human subjects): no drug related adverse events | immune cell infiltration and alveolar edema (H&E lung histopathology) ([7]; 14.34 mg/kg aCT1 immediately after CLP, lungs at 12 hours post CLP): significantly decreased immune cell infiltration and alveolar edema | survival ([7]; 14.34 mg/kg aCT1 intravenously immediately after CLP, p=0.052 Log-rank): prolonged survival | survival ([7]; aCT1 intravenously 6 hours post CLP, p<0.05 Log-rank): prolonged survival | TER / intercellular junction integrity [8]: stabilized intercellular junctions; also recorded: significantly increased TER readings

Reference: patent US20250281574A1 (priority 2022, published 2025)
